Results on two compounds are retold here after patent US20250001009A1, “THERAPY FOR PROGRAMMED CELL DEATH IN A SUBJECT TRANSPLANTED WITH A DONOR LIVER CARRYING THE PNPLA3 RS738409:G VARIANT” (priority 2021, published 2025).

Entries after “also recorded” stand apart in the source; their conditions may differ.

The subject of series [1] is donor hepatocytes positive for the PNPLA3 rs738409:G variant. Kind of series: Mitochondrial shape by transmission electron microscopy. As to conditions: in the presence of FINO2. It is filed as cell-based, human. As for the experimental part:
To evaluate the protective effects of deferoxamine, primary human hepatocytes were treated with 100 μM deferoxamine (DFO, Sigma-Aldrich, Saint-Louis, MO) for 24 hours in suspension. To evaluate the protective effects of GSH, primary human hepatocytes on collagen-coated plates were treated with 10 μM reduced L-glutathione (GSH, G4251, Sigma-Aldrich, Saint-Louis, MO) for 48 hours. Transmission electron microscopy: Human hepatocytes in suspension were briefly centrifugated and washed with PBS solution. Samples were then fixed with 2.5% glutaraldehyde over night at 4° C. Fixed samples were processed by the Center for Biologic Imaging at the University of Pittsburgh, and treated with 1% osmium tetroxide and 1% potassium ferricyanide for 1 hour at room temperature. Samples were washed with PBS and dehydrated in a graded series of ethanol solution (30%, 50%, 70%, and 90% ethanol; 10 minutes each) and three 15-minute incubations in fresh 100% ethanol. Infiltration/embedding was done with three 1-hour incubations of epon. The last change of epon was removed and beam capsules filled with resin were inverted over relevant areas of the monolayers. […] Mitochondrial shape was evaluated as published previously using ImageJ (Merrill et al. in Techniques to Investigate Mitochondrial Function in Neurons, 123:31-48. Neuromethods. Springer New York, 2017).

The test system is the same in series [2]. Kind of series: Cell viability / survival (Alamar Blue) of primary human hepatocytes. Type of series: cell-based. The method, then:
To evaluate the protective effects of deferoxamine, primary human hepatocytes were treated with 100 μM deferoxamine (DFO, Sigma-Aldrich, Saint-Louis, MO) for 24 hours in suspension. To evaluate the protective effects of GSH, primary human hepatocytes on collagen-coated plates were treated with 10 μM reduced L-glutathione (GSH, G4251, Sigma-Aldrich, Saint-Louis, MO) for 48 hours. Cell Viability Measurements: Cell viability was assessed in 96-well format using Alamar Blue (Invitrogen, Carlsbad, CA) absorbance (570 nm/600 nm) measured on a synergy HTX microplate reader (Biotek, Winooski, VT) 24 hours after ferroptosis induction. Post thaw viability of primary human hepatocytes was evaluated by Trypan blue dye exclusion counting using a Countess 3 automated cell counter (Invitrogen, Carlsbad, CA).
A general note: Resazurin is reduced to fluorescent resorufin, in cell work by metabolically active cells.

Series [3] shares this test system. The experiment in a line: Lipid peroxidation (C11-BODIPY / MDA) in primary human hepatocytes. Type of series: cell-based. As for the experimental part: To evaluate the protective effects of deferoxamine, primary human hepatocytes were treated with 100 μM deferoxamine (DFO, Sigma-Aldrich, Saint-Louis, MO) for 24 hours in suspension. To evaluate the protective effects of GSH, primary human hepatocytes on collagen-coated plates were treated with 10 μM reduced L-glutathione (GSH, G4251, Sigma-Aldrich, Saint-Louis, MO) for 48 hours. Analysis of Lipid Peroxidation: A oxidation-sensitive probe C11-BODIPY (581/591) (Invitrogen, Carlsbad, CA) was used to evaluate lipid peroxidation under a fluorescence microscope. Untreated hepatocytes were prepared using a cytocentrifuge, incubated for 30 min with 10 μM C11-BODIPY, and washed with PBS. Cultured cells were incubated with 10 μM C11-BODIPY dissolved in culture media for 30 min at 37° C. and washed with PBS. The fluorescent signal was evaluated 3 hours after induction of ferroptosis. Malondialdehyde (MDA) is a natural biproduct of lipid peroxidation and MDA quantification is used as marker for lipid peroxidation. The MDA content in primary human hepatocytes was quantified using a commercially available kit from Sigma-Aldrich (Sigma-Aldrich, Saint-Louis, MO). Cryopreserved primary human hepatocytes were pelleted and analyzed directly or were cultured for 3 hours in suspension before the analysis. […] The MDA-TBA adduct was quantified using fluorometric detection (ex/em=430 nm/590 nm).

As for `CC1(CCO)CC2(CCC(C(C)(C)C)CC2)OO1` (stereo not drawn) [FINO2, (5α,8α)-8-(1,1-dimethylethyl)-3-methyl-1,2-dioxaspiro[4.5]decane-3-ethanol, reference compound], in series [1], the mitochondrial shape result is given as “changed from a rod shape to a spherical shape”. The donor hepatocyte survival entry in series [2] (donor hepatocytes cultured in the presence of FINO2 (50 μM), 24 hours after ferroptosis induction) is “significant reduction in donor hepatocyte survival”. Also, the lipid peroxidation result in series [3] (donor hepatocytes cultured in the presence of FINO2 (50 μM)) is “increased lipid peroxidation”.

As to `N[C@@H](CCC(=O)N[C@@H](CS)C(=O)NCC(=O)O)C(=O)O` [GSH, reduced L-glutathione], the survival result in series [2] (10 μM reduced L-glutathione, 48 hours, collagen-coated plates, p=0.002) is on record as “improves cell survival; also recorded: increased survival”. Also, the lipid peroxidation entry in series [3] (10 μM reduced L-glutathione, 48 hours, collagen-coated plates) is recorded as “reduces lipid peroxidation; also recorded: decreased lipid peroxidation”.
